Source: paper PMC12596933 (Chembiochem, 2025)

What was measured:
[1] = tested on: HL-60 cells; assay: Cell surface fucosylation, flow cytometry with lectin AAL staining; type: cell-based; conditions: 4 to 500 μM, 3 days, normalized to DMSO as 100%
[2] = tested on: FUT6; conditions: read-out: Km as donor for FUT6; cited from earlier work
[3] = tested on: FUT8; conditions: read-out: Km as donor for FUT8; cited from earlier work
[4] = biological target: T1, FKP (bacterial L-fucokinase/GDP-fucose pyrophosphorylase) (Bacteroides fragilis, UniProt Q58T34); assay: Enzymatic conversion by FKP into the sugar nucleotide; type: biochemical
T1 sequence (Q58T34 1-949): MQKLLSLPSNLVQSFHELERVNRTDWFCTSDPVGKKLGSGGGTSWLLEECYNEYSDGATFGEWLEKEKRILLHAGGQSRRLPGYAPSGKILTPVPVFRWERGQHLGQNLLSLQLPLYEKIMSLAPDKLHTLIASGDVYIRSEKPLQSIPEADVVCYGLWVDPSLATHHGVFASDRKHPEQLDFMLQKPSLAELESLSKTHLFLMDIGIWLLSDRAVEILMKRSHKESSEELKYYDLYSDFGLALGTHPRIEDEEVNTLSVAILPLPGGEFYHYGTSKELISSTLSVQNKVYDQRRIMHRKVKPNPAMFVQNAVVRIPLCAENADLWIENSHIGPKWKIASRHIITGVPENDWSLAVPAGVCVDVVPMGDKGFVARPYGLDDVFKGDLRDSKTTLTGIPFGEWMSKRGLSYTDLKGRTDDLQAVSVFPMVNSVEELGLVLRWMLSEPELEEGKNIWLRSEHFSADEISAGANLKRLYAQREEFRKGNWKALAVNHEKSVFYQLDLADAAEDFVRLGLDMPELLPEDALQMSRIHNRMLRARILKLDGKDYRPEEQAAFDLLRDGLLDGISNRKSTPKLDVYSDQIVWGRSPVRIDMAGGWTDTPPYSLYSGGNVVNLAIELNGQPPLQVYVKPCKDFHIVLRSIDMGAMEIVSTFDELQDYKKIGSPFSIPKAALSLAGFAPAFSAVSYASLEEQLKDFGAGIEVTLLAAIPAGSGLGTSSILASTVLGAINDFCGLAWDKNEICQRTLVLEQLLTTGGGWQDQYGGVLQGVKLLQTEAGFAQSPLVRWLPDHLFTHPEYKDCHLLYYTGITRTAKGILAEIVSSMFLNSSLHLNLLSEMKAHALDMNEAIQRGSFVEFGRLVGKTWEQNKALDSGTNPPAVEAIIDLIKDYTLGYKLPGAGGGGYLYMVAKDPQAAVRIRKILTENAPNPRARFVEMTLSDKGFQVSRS

For CC(=O)O[C@@H]1O[C@@H](C)[C@@H](OC(C)=O)[C@@H](OC(C)=O)[C@@H]1OC(C)=O [Ac‐fucose], the “effect on cell surface fucosylation” value [1] was “enhanced fucosylation”.
For Nc1nc2c(ncn2C2OC(COP(=O)(O)OP(=O)(O)OC3OC(CNC(=O)Cc4ccc5ccccc5c4)C(O)C(O)C3O)C(O)C2O)c(=O)[nH]1 (stereo not shown) [6‐deoxy‐6‐N‐(2‐naphthylacetyl)‐GDP‐fucose], the Km [2] is given as 0.94 µM and the Km [3] is given as 175 µM.
With [N-]=[N+]=NC[C@@H]1OC(O)[C@@H](F)[C@H](O)[C@@H]1O (stereo partly shown) [6‐N3‐2‐F‐Fuc] the “conversion by FKP into the corresponding sugar nucleotide product” value [4] was “unable to catalyze the conversion”.
